Key:
ATII-APH(3′) = tested on: T1, ATII-APH(3′); test: pyruvate kinase/lactate dehydrogenase coupled assay, NADH oxidation at […] nm; assay type: biochemical; conditions: phosphorylation of aminoglycoside; Michaelis-Menten fit
T1 construct: full-length ORF (804 nt query), codon-optimised synthetic gene, N-terminal 10x-His tag (pET-16b), E. coli BL21(DE3), Talon-purified

ATII-ABL = tested on: T2, ATII-ABL; test: chromogenic nitrocefin hydrolysis at […] nm; assay type: biochemical, uncultured bacterium; conditions: 100 nM enzyme; Michaelis-Menten fit
T2 construct: gene bla

Row | SMILES | Km (ATII-APH(3′)) [µM] | Km (ATII-ABL) [µM]
1 | NCC[C@H](O)C(=O)N[C@@H]1C[C@H](N)[C@@H](O[C@H]2O[C@H](CN)[C@@H](O)[C@H](O)[C@H]2O)[C@H](O)[C@H]1O[C@H]1O[C@H](CO)[C@@H](O)[C@H](N)[C@H]1O [Amikacin] | 5500 ± 1650 | 
2 | NC[C@H]1O[C@H](O[C@H]2[C@H](O)[C@@H](O[C@H]3O[C@H](CO)[C@@H](O)[C@H](N)[C@H]3O)[C@H](N)C[C@@H]2N)[C@H](O)[C@@H](O)[C@@H]1O [Kanamycin] | 4.7 ± 0.96 | 
3 | O=C(Cc1cccs1)N[C@@H]1C(=O)N2C(C(=O)O)=C(/C=C/c3ccc([N+](=O)[O-])cc3[N+](=O)[O-])CS[C@H]12 [Nitrocefin] |  | 5.07 ± 1.65
